Source: patent publication US20230248726A1, “PHARMACEUTICAL COMPOSITION AND APPLICATION THEREOF” (SHANGHAI RAISING PHARMACEUTICAL CO., LTD., priority 2020, published 2023)
Structures can show the parent of a compound that is named as a salt.

Test system: APP/PS1/Tau mice
Assay: Morris water maze test
Type: in vivo
Details: for Time in the target quadrant / Times of crossing over the platform / latent period: APP/PS1/Tau mice, intragastric daily for 8 weeks, testing Day 6, n = 10, BTMP 200 mg/kg, VB1 200 mg/kg, donepezil hydrochloride 1.5 mg/kg, ½BTMP 100 mg/kg; for spatial memory and learning ability of the AD mice (result in words): Morris water maze, compared with the model group
Description: In water, rodents have a strong motivation to escape from the water environment, and can escape from the water environment in the fastest and most direct way. The process of learning to escape from the water environment reflects the learning ability of animals. Spatial positioning according to the surrounding environment and swimming to a safe place in the water (such as a platform) on purpose can reflect the spatial learning and memory ability of animals.
The test animals were male APP/PS1/Tau mice and C57BL/6 wild type mice. The mice were 8 months old, weighing […], and purchased from The Jackson laboratory.
App/PS1/Tau mice are APP/PS1/tau triple transgenic Alzheimer's disease (3×Tg-AD) model mice, whose AO deposition occurs several months earlier than the pathological change of the tau protein, and can more realistically simulate the clinical process and pathological changes of Alzheimer's disease.
Preparation of a 10 mg/ml vitamin B1 solution (dosage: 200 mg/kg): 500 mg of vitamin B1 was weighed, and 0.7% m/v CMC-Na was added to reach 50 ml, to obtain a 10 mg/ml solution.
Preparation of a 10 mg/ml BTMP suspension (dosage: 200 mg/kg): 500 mg of BTMP was weighed, and 0.7% m/v CMC-Na was added to reach 50 ml, to obtain a 10 mg/ml BTMP suspension.
Preparation of a 0.075 mg/ml donepezil hydrochloride suspension (dosage: 1.5 mg/kg): one donepezil hydrochloride tablet (containing 5 mg donepezil hydrochloride) was ground, and 0.7% m/v CMC-Na was added to reach 66.67 ml, to obtain a 0.075 mg/ml donepezil hydrochloride suspension.
Preparation of a 10 mg/ml BTMP suspension+0.075 mg/ml donepezil hydrochloride suspension (dosage: 200 mg/kg BTMP suspension+1.5 mg/kg donepezil hydrochloride suspension): a 20 mg/ml BTMP suspension and a 0.15 mg/ml donepezil hydrochloride suspension were respectively prepared, and equal volumes were evenly mixed before administration, to obtain a 10 mg/ml BTMP suspension+0.075 mg/ml donepezil hydrochloride suspension.
Preparation of a 5 mg/ml BTMP suspension+0.075 mg/ml donepezil hydrochloride suspension (dosage: 100 mg/kg BTMP suspension+1.5 mg/kg donepezil hydrochloride suspension): a 10 mg/ml BTMP suspension and a 0.15 mg/ml donepezil hydrochloride suspension were respectively prepared, and equal volumes were evenly mixed before administration, to obtain a 5 mg/ml BTMP suspension+0.075 mg/ml donepezil hydrochloride suspension.
The mice in the blank control group, the model group and the test groups were intragastrically administered according to the dosage/specification in 2.2. for 8 weeks, and the water maze training and testing were started in the last week of the administration. The water maze training and testing lasted for 6 days, with 5 days of training and 1 day of testing. In addition, during the water maze training and testing period (6 days in total), conditions such as the indoor lighting etc. were kept constant, and the room was kept quiet, so as to eliminate the interference of the environment and personnel.
(1) Pre-test preparation: an appropriate amount of water was placed in a water maze pool with water temperature being kept at 22±3° C., a platform was placed at a fixed position (the target quadrant) and 1 cm below the water surface, and titanium dioxide was added until water color was white, and the platform could not be seen clearly.
(2) Training period (Day 1 to Day 5): each mouse was placed on the platform for 15 s (to increase the mouse's sense of security on the platform) prior to the first quadrant training on each day, and then the mouse was placed in the quadrant where the platform located in the pool (head towards the wall), and a swimming time of 60 s was set. If it found the platform within 60 s and stayed for 5 s, it was considered as a success in finding the platform.
After the first quadrant training, the training in the remaining three quadrants was performed in turn, wherein it is not necessary to place the mice on the platform and hold for 15 s before training.

Structure (SMILES) | Time in the target quadrant | Times of crossing over the platform | latent period | spatial memory and learning ability of the AD mice (result in words)
Cc1ncc(C[n+]2csc(CCO)c2C)c(N)n1 [VB1, vitamin B1] | 11.87 ± 1.17^*#& s | 1.00 ± 0.67^*& | 35.10 ± 4.09^*#& s | did not significantly improve
COc1cc2c(cc1OC)C(=O)C(CC1CCN(Cc3ccccc3)CC1)C2 (stereo not drawn) [Donepezil hydrochloride, donepezil hydrochloride] | 14.44 ± 1.11 s | 1.80 ± 0.79 | 27.80 ± 2.04 s | significantly improved
C/C(=C(\CCOP(=O)(O)O)SC(=O)c1ccccc1)N(C=O)Cc1cnc(C)nc1N [BTMP, S-2-[[(2-methyl-4-amino-5-pyrimidinyl)methyl]formylamino]-5-phosphonooxy-2,3-pentenyl-3-mercaptobenzoate] | 14.96 ± 1.50 s | 2.10 ± 0.74 | 26.10 ± 1.85 s | significantly improved
